Assay results taken from PubChem BioAssay AID248 (DTP/NCI, 2004).
Values joined by “and” are separate entries in the source; they are usually repeats but may differ in a detail not shown here. Equal values may be shown once. Inconclusive results and toxic doses are left out. Rule as the data show it: active = T/C of 150% or more; inactive = T/C below 125%.

System: L1210 leukemia ip in BDF1 mice, survival T/C
Assay: NCI In Vivo Anticancer Drug Screen. Data for tumor model L1210 Leukemia (intraperitoneal) in B6D2F1 (BDF1) mice
Details: endpoint: mean survival time, higher = longer survival
Procedure, shortened: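 Value reflects the ratio of survival in compound-treated mice to survival in vehicle-treated controls, with both groups carrying the same transplanted tumor.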

[1] = dose: 100.0 mg/kg/injection, schedule: Q04DX003 (ip), vehicle: Klucel (hydroxypropylcellulose) (HPC)
[2] = dose: 200.0 mg/kg/injection, schedule: Q04DX003 (ip), vehicle: Klucel (hydroxypropylcellulose) (HPC)
[3] = dose: 400.0 mg/kg/injection, schedule: Q04DX003 (ip), vehicle: Klucel (hydroxypropylcellulose) (HPC)
[4] = dose: 100.0 mg/kg/injection, schedule: Q04DX003 (ip), vehicle: saline
[5] = dose: 200.0 mg/kg/injection, schedule: Q04DX003 (ip), vehicle: saline
[6] = dose: 400.0 mg/kg/injection, schedule: Q04DX003 (ip), vehicle: saline
[7] = dose: 100.0 mg/kg/injection, schedule: Q04DX002 (ip), vehicle: Klucel (hydroxypropylcellulose) (HPC)
[8] = dose: 200.0 mg/kg/injection, schedule: Q04DX002 (ip), vehicle: Klucel (hydroxypropylcellulose) (HPC)
[9] = dose: 100.0 mg/kg/injection, schedule: Q01DX001 (ip), vehicle: saline
[10] = dose: 200.0 mg/kg/injection, schedule: Q01DX001 (ip), vehicle: saline
[11] = dose: 400.0 mg/kg/injection, schedule: Q01DX001 (ip), vehicle: saline
[12] = dose: 50.0 mg/kg/injection, schedule: Q01DX001 (ip), vehicle: saline

Measured: T/C

CCCCCCCCCCCCSCCSCCSCCCCCCCCCCCC
inactive: [1] 93 % of control | [2] 92 % of control | [3] 98 % of control

O=[N+]([O-])c1ccc(OCCCOc2ccc(S(=O)(=O)F)cc2)cc1
inactive: [4] 102 % of control | [5] 102 % of control | [6] 106 % of control

CCN(CC#CCOc1ccc(Br)cc1)c1ccccc1
inactive: dose: 100.0 mg/kg/injection, schedule: Q04DX002 (ip), vehicle: saline 105 % of control | dose: 200.0 mg/kg/injection, schedule: Q04DX002 (ip), vehicle: saline 101 % of control | dose: 400.0 mg/kg/injection, schedule: Q04DX002 (ip), vehicle: saline 99 % of control

COC(=O)/C(C#N)=N/O
inactive: dose: 50.0 mg/kg/injection, schedule: Q01DX009 (ip), vehicle: saline with Tween-80 102 % of control | dose: 100.0 mg/kg/injection, schedule: Q01DX009 (ip), vehicle: saline with Tween-80 97 % of control | dose: 100.0 mg/kg/injection, schedule: Q04DX003 (ip), vehicle: saline with Tween-80 100 % of control | dose: 200.0 mg/kg/injection, schedule: Q01DX009 (ip), vehicle: saline with Tween-80 94 % of control | dose: 200.0 mg/kg/injection, schedule: Q04DX003 (ip), vehicle: saline with Tween-80 94 % of control

OCc1ccccc1Cn1ccnc1
inactive: dose: 100.0 mg/kg/injection, schedule: Q01DX001 (ip), vehicle: Klucel (hydroxypropylcellulose) (HPC) 111 % of control | dose: 100.0 mg/kg/injection, schedule: Q01DX009 (ip), vehicle: Klucel (hydroxypropylcellulose) (HPC) 97 % of control and 105 % of control | [7] 102 % of control and 103 % of control | [1] 105 % of control | dose: 200.0 mg/kg/injection, schedule: Q01DX001 (ip), vehicle: Klucel (hydroxypropylcellulose) (HPC) 103 % of control | dose: 200.0 mg/kg/injection, schedule: Q01DX009 (ip), vehicle: Klucel (hydroxypropylcellulose) (HPC) 94 % of control and 87 % of control | [8] 97 % of control and 88 % of control | [2] 111 % of control | dose: 400.0 mg/kg/injection, schedule: Q01DX001 (ip), vehicle: Klucel (hydroxypropylcellulose) (HPC) 99 % of control | dose: 400.0 mg/kg/injection, schedule: Q01DX009 (ip), vehicle: Klucel (hydroxypropylcellulose) (HPC) 94 % of control and 96 % of control | dose: 400.0 mg/kg/injection, schedule: Q04DX002 (ip), vehicle: Klucel (hydroxypropylcellulose) (HPC) 97 % of control and 100 % of control | [3] 110 % of control

NC(Cc1cc(Br)c(O)c(Br)c1)C(=O)O (centres undefined)
inactive: [9] 97 % of control | dose: 100.0 mg/kg/injection, schedule: Q01DX009 (ip), vehicle: saline 90 % of control | [4] 103 % of control | [10] 97 % of control | dose: 200.0 mg/kg/injection, schedule: Q01DX009 (ip), vehicle: saline 109 % of control | [5] 98 % of control | [11] 91 % of control | dose: 400.0 mg/kg/injection, schedule: Q01DX009 (ip), vehicle: saline 93 % of control | [6] 97 % of control

Cc1no[n+]([O-])c1[N+](=O)[O-]
inactive: dose: 5.0 mg/kg/injection, schedule: Q01DX009 (ip), vehicle: saline 100 % of control | dose: 10.0 mg/kg/injection, schedule: Q01DX009 (ip), vehicle: saline 101 % of control | dose: 20.0 mg/kg/injection, schedule: Q01DX009 (ip), vehicle: saline 102 % of control

Nc1ccc(OCCCc2c(-c3ccccc3)nc(N)[nH]c2=O)cc1
inactive: [12] 93 % of control | [9] 96 % of control | [4] 100 % of control | [10] 102 % of control | [5] 96 % of control | [11] 102 % of control | [6] 90 % of control

COc1cc(C(=O)N(C)OC)cc(OC)c1OC
inactive: dose: 100.0 mg/kg/injection, schedule: Q01DX001 (ip), vehicle: carboxymethylcellulose (CMC) 96 % of control | dose: 200.0 mg/kg/injection, schedule: Q01DX001 (ip), vehicle: carboxymethylcellulose (CMC) 91 % of control | dose: 400.0 mg/kg/injection, schedule: Q01DX001 (ip), vehicle: carboxymethylcellulose (CMC) 100 % of control

CSc1cc(C(=O)O)nc(SC)n1
inactive: dose: 100.0 mg/kg/injection, schedule: Q01DX Z (ip), vehicle: methylcellulose (MC) 97 % of control

Cc1ccc(Cl)cc1NC(=S)N(C)C
inactive: dose: 100.0 mg/kg/injection, schedule: Q04DX002 (ip), vehicle: saline with Tween-80 98 % of control | dose: 200.0 mg/kg/injection, schedule: Q04DX002 (ip), vehicle: saline with Tween-80 98 % of control

Cc1c2c(n(C)c1C(=O)N1CCCCC1)CCCC2=O
inactive: dose: 75.0 mg/kg/injection, schedule: Q01DX001 (ip), vehicle: carboxymethylcellulose (CMC) 103 % of control | dose: 150.0 mg/kg/injection, schedule: Q01DX001 (ip), vehicle: carboxymethylcellulose (CMC) 101 % of control | dose: 300.0 mg/kg/injection, schedule: Q01DX001 (ip), vehicle: carboxymethylcellulose (CMC) 98 % of control

CN(C)C(=O)C1C2CCC(C3CC32)C1C(=O)N(C)C (centres undefined)
inactive: dose: 75.0 mg/kg/injection, schedule: Q01DX009 (ip), vehicle: saline 95 % of control | [4] 106 % of control | dose: 150.0 mg/kg/injection, schedule: Q01DX009 (ip), vehicle: saline 97 % of control | [5] 106 % of control | dose: 300.0 mg/kg/injection, schedule: Q01DX009 (ip), vehicle: saline 95 % of control | [6] 103 % of control

Cc1cc(Cl)nc2ccc(Cc3ccc(Br)cc3)cc12
inactive: [9] 95 % of control | [10] 96 % of control | [11] 91 % of control

C=C(C)CSC(=S)NNc1ccccc1
inactive: dose: 150.0 mg/kg/injection, schedule: Q01DX009 (ip), vehicle: saline with Tween-80 93 % of control | dose: 225.0 mg/kg/injection, schedule: Q01DX009 (ip), vehicle: saline with Tween-80 86 % of control

CCCn1c(N)cc(=O)[nH]c1=S
inactive: [12] 100 % of control | [9] 96 % of control | [10] 100 % of control | [11] 100 % of control

O=c1[nH]nc(-c2ccccc2)c2ccccc12
inactive: [12] 100 % of control | [9] 97 % of control | [10] 93 % of control | [11] 100 % of control

CCCC(=O)C(CC)C(OC(C)=O)(C(F)(F)F)C(F)(F)F (centres undefined)
inactive: dose: 75.0 mg/kg/injection, schedule: Q01DX009 (ip), vehicle: Klucel (hydroxypropylcellulose) (HPC) 87 % of control | dose: 150.0 mg/kg/injection, schedule: Q01DX009 (ip), vehicle: Klucel (hydroxypropylcellulose) (HPC) 89 % of control | dose: 300.0 mg/kg/injection, schedule: Q01DX009 (ip), vehicle: Klucel (hydroxypropylcellulose) (HPC) 87 % of control

CC(=O)Oc1c(-c2ccccc2)cc([N+](=O)[O-])cc1[N+](=O)[O-]
inactive: dose: 50.0 mg/kg/injection, schedule: Q04DX002 (ip), vehicle: Klucel (hydroxypropylcellulose) (HPC) 97 % of control | [7] 103 % of control | [8] 94 % of control
